The values below come from patent publication US20090048155A1 (priority 2007, published 2009).

Assay [1] relates to Y. pestis CO99pgm-. Also on record: species or system Sprague-Dawley rats. As to conditions: rat, in vivo.
In assay [2] the test system is Y. pestis CO99pgm-. Further details: species or system Sprague-Dawley rats. The note with it: rat, in vivo. This is another data set of the same source.

Each structure is given as a SMILES string.

In the case of `O=C(O)c1cn(C2CC2)c2cc(N3CCNCC3)c(F)cc2c1=O` [Cipro, ciprofloxacin], in the assay with Y. pestis CO99pgm- [1], the 6-day survival rate is on record as 100%, the “Median Survival Time” value was found to be 84 h and the Survival stood at 28%. Moreover, in the assay on Y. pestis CO99pgm- [2], the “leukocyte infiltration index (LII)” value is “did not significantly improve”; the lung edema result is on record as “did not significantly improve”; the “lung scores (combined interstitial and alveolar edema and hemorrhage and LII scores)” value was “did not significantly improve”.
